Read-outs that look alike come from different tables or passages of the source.
How the values were obtained:
[1] = test system: A2780 E6 (A2780 subline transfected with E6 human papillomavirus gene); assay: Growth inhibition (sulforhodamine B assay), A2780E6; type: cell-based
[2] = test system: A2780cisR acquired cisplatin resistant subline; assay: Growth inhibition (sulforhodamine B assay), A2780cisR; type: cell-based, human; conditions: for IC50: A2780cisR, drug alone
Protocol: (§1) Growth inhibition (using the sulforhodamine B assay) was determined for ZDO473 alone, and combined either simultaneously or administered sequentially (following washing) for 24 hours with paclitaxel. The effect of the drug combinations was analysed using median effect analysis.

[3] = test system: CH1 human ovarian carcinoma cell line; assay: cells; conditions: read-out: IC50 growth inhibition
Protocol: as §1

[4] = test system: A2780 human ovarian carcinoma cell line; assay: cells
Protocol: as §1

human tumour xenografts = assay: In-vivo studies in human tumour xenografts; conditions: compared with cisplatin
ADJ/PC6cisR tumour = assay: Murine acquired cisplatin resistant tumour; conditions: tumour totally resistant to other platinum agents
[5] = monotherapy Phase I trial, interim results; cited from earlier work
[6] = test system: cisplatin-resistant CH1 ovarian tumour xenograft; assay: Cisplatin-resistant CH1 ovarian tumour xenograft; conditions: even when progressing on cisplatin treatment
41McisR ovarian line = conditions: resistance to cisplatin due to reduced uptake

CC(=O)O[C@H]1C(=O)[C@@]2(C)[C@H]([C@H](OC(=O)c3ccccc3)[C@]3(O)C[C@H](OC(=O)[C@H](O)[C@@H](NC(=O)c4ccccc4)c4ccccc4)C(C)=C1C3(C)C)[C@]1(OC(C)=O)CO[C@@H]1C[C@@H]2O [Paclitaxel, paclitaxel, reference compound]
IC50 ([1]; Homo sapiens, A2780/E6, drug alone): 20.8 nM
IC50 ([2]; Homo sapiens): 3.5 nM
IC50 ([3]; Homo sapiens, Ovarian carcinoma cell): 3.1 nM
IC50 ([4]; Homo sapiens, A2780, read-out: IC50 growth inhibition): 2.5 nM

Cc1ccccn1.N.[Cl-].[Cl-].[Pt+2] [ZDO473, (SP-4-3)-(cis-amminedichloro-[2-methylpyridine]platinum (II)]
IC50 ([1]; 96 hour continuous exposure, drug alone): 8600 nM
cross-resistance of A2780cisR ([2]; A2780cisR versus A2780): 4.2 fold
IC50 ([2]; 96 hour continuous exposure): 15600 nM
activity in human tumour xenografts (human tumour xenografts): at least comparable and in some cases superior to that of cisplatin
IC50 ([3]; CH1, 96 hour continuous exposure, drug alone): 3300 nM
IC50 ([4]; read-out: IC50 growth inhibition, A2780, 96 hour continuous exposure, drug alone): 3700 nM
activity against acquired cisplatin resistant murine tumour (ADJ/PC6cisR tumour): some activity was seen
dose-limiting toxicity [5]: bone marrow suppression
kidney or nerve toxicity [5]: no evidence of kidney or nerve toxicity
activity versus cisplatin-resistant xenograft [6]: Activity was retained
ability to overcome cisplatin resistance (41McisR ovarian line): showed the ability to overcome resistance
recommended dose for phase II studies, initial (every 3 weeks): 120 mg/m^2
current recommended dose (patients who tolerate higher doses): 150 mg/m^2
antitumour activity in patients (small & non-small cell lung cancer, mesothelioma, head and neck, breast and ovarian cancers): Evidence of antitumour activity has been observed

N.N.[Cl][Pt][Cl] [cisplatin, cis-dichlorodiammine platinum (II), reference compound]
acquired cisplatin resistance of subline ([2]; A2780cisR versus A2780): 15 fold

Source: patent US20040053882A1, “Combination chemotherapy” (priority 2000, published 2004)
